The results in this text go back to patent US9598433B2, “Hepatitis C virus inhibitors” (BRISTOL-MYERS SQUIBB COMPANY, priority 2012, dated 2017).

As usually defined, the EC50 is the concentration that produces a half-maximal response.

For experiment [1], the system named is HCV genotype 1a (H77 strain) replicon in HUH-7 cells. In words: HCV replicon luciferase reporter assay, genotype 1a. In kind it is cell-based. The settings on record: Hepatitis C virus, 72 h, genotype 1a replicon, 3 days incubation. The source says:
(§1) An HCV replicon whole cell system was established as described by Lohmann V, Korner F, Koch J, Herian U, Theilmann L, Bartenschlager R., Science 285(5424):110-3 (1999) and modified to introduce a luciferase reporter, as first described by Krieger et al (Krieger N, Lohmann V, and Bartenschlager R, J. Virol. 75(10):4614-4624 (2001)). CDNA encoding a humanized form of the Renilla luciferase gene and a linker sequence fused directly to the 3′-end of the luciferase gene were introduced into the replicon construct using an Ascl restriction site located in core, directly upstream of the neomycin marker gene. The adaptive mutation at position 1179 (serine to isoleucine) was also introduced (Blight K J, Kolykhalov, A A, Rice, C M, Science 290(5498):1972-1974). A stable cell line constitutively expressing this HCV replicon construct was generated by first linearizing plasmid DNAs with ScaI. RNA transcripts were synthesized in vitro using the T7 MegaScript transcription kit (Ambion, Austin, Tex.) according to manufacturer's directions. In vitro transcripts of the cDNA were transfected into the human hepatoma cell line, HUH-7. […] Resulting cell lines were characterized for positive and negative strand RNA production and protein production over time.
A stable HCV replicon luciferase reporter cell line representing the genotype 1a H77 strain (Yanagi M, Purcell R H, Emerson S U, et al. Transcripts from a single full-length cDNA clone of hepatitis C virus are infectious when directly transfected into the liver of a chimpanzee. Proc Natl Acad Sci USA 1997; 94(16):8738-8743) was generated as described previously for the genotype 1b(Con1) replicon luciferase cell line. The replicon construct was modified by introducing mutations were introduced into the genes encoding the NS3 helicase domain (proline replaced by leucine at position 1496) and NS5A (serine to isoleucine at position 2204) to improve replication in cell culture.
(§2) HCV replicon luciferase assays were developed to monitor the inhibitory effects of compounds described in the disclosure on HCV genotypes 1a and 1b viral replication. HUH-7 cells, constitutively expressing the HCV replicon, were grown in Dulbecco's Modified Eagle Media (DMEM) (Gibco-BRL) containing 10% Fetal calf serum (FCS) (Sigma) and 1 mg/mL G418 (Gibco-BRL). Compounds were serially diluted 3 folds in DMSO for a twenty-point titration and subsequently transferred to sterile 384-well tissue-culture treated plates (Corning cat #3571). The plates were then seeded with 50 μL of cells at a density of 3.0×10^3 cells/well in DMEM containing 4% FCS (final DMSO concentration at 0.5%). After 3 days incubation at 37° C., cells were analyzed for Renilla Luciferase activity using the EnduRen as substrate (Promega cat #E6485). The EnduRen substrate was diluted in DMEM and then added to the plates to a final concentration of 7.5 μM. The plates were incubated for 2 hrs at 37° C. and then read immediately for 30 seconds with Viewlux Imager (PerkinElmer) using a luminescence program. To assess cytotoxicity of compounds, CC50 values were generated by multiplexing the EnduRen-containing plates with Cell Titer-Blue (Promega, cat # G8082). Cell-Titer Blue (3 μL) was added to each well and incubated for 8 hrs at 37° C. The fluorescence signal from each well was read, with an excitation wavelength at 525/10 nm and an emission wavelength of 598/10 nm, using the Viewlux Imager.
(§3) The EC50 values for compounds were calculated by using a four-parameter logistic equation: y=A+((B−A)/(1+((C/x)^D))), where A and B denotes minimal and maximal % inhibition, respectively, C is the EC50, D is the hill slope and x represents compound concentration.
(In general: In antiviral work, replicon cells carry a viral genome segment that copies itself.)

Experiment [2] relates to HCV genotype 1b (Con1) replicon in HUH-7 cells. The experiment can be described thus: HCV replicon luciferase reporter assay, genotype 1b. Type of experiment: cell-based. The conditions noted are these: Hepatitis C virus, 72 h, genotype 1b replicon, 3 days incubation.
Description: as §1, §2, §3

Like-named read-outs stand apart in the source and are kept apart here.

`COc1cnc(O[C@@H]2C[C@H]3C(=O)N[C@]4(C(=O)NS(=O)(=O)C5(C)CC5)C[C@H]4/C=C\CC[C@@H](C)O[C@@H](C)[C@H](NC(=O)OC(C)(C)C(F)(F)F)C(=O)N3C2)c2ccccc12` [Compound 2003, 1,1,1-trifluoro-2-methylpropan-2-yl ((2R,6S,7S,9R,13aS,14aR,16aS,Z)-2-((4-methoxyisoquinolin-1-yl)oxy)-7,9-dimethyl-14a-(((1-methylcyclopropyl)sulfonyl)carbamoyl)-5,16-dioxo-2,3,5,6,7,9,10,11,13a,14,14a,15,16,16a-tetradecahydro-1H-cyclopropa[i]pyrrolo[1,2-e][1,5,8]oxadiazacyclopentadecin-6-yl)carbamate]: the concentration giving a half-maximal response (EC50) in experiment [1] (read-out: LE_1a (EC50, range)) fell in the range of 510 to 1000 pM; in experiment [2] (read-out: LE_1b (EC50, range)), 100 to 500 pM.

For the compound `CC[C@@H]1O[C@H](C)CC/C=C\[C@@H]2C[C@@]2(C(=O)NS(=O)(=O)C2(C)CC2)NC(=O)[C@@H]2C[C@@H](Oc3ncc(OC)c4ccc(F)cc34)CN2C(=O)[C@H]1NC(=O)OC(C)(C)C(C)(F)F` [Compound 2605, 3,3-difluoro-2-methylbutan-2-yl ((2R,6S,7S,9R,13aS,14aR,16aS,Z)-7-ethyl-2-((7-fluoro-4-methoxyisoquinolin-1-yl)oxy)-9-methyl-14a-(((1-methylcyclopropyl)sulfonyl)carbamoyl)-5,16-dioxo-2,3,5,6,7,9,10,11,13a,14,14a,15,16,16a-tetradecahydro-1H-cyclopropa[i]pyrrolo[1,2-e][1,5,8]oxadiazacyclopentadecin-6-yl)carbamate], the concentration giving a half-maximal response (EC50) fell in the range of 510 to 1000 pM in experiment [1] (read-out: LE_1a (EC50, range)) and 100 to 500 pM in experiment [2] (read-out: LE_1b (EC50, range)).

With `CC[C@@H]1O[C@H](C)CC/C=C\[C@@H]2C[C@@]2(C(=O)NS(=O)(=O)C2CC2)NC(=O)[C@@H]2C[C@@H](Oc3nc(OC)cc4cc(OC)ccc34)CN2C(=O)[C@H]1NC(=O)OC(C)(C)C(F)(F)F` [Compound 1008, 1,1,1-trifluoro-2-methylpropan-2-yl ((2R,6S,7S,9R,13aS,14aR,16aS,Z)-14a-((cyclopropylsulfonyl)carbamoyl)-2-((3,6-dimethoxyisoquinolin-1-yl)oxy)-7-ethyl-9-methyl-5,16-dioxo-2,3,5,6,7,9,10,11,13a,14,14a,15,16,16a-tetradecahydro-1H-cyclopropa[i]pyrrolo[1,2-e][1,5,8]oxadiazacyclopentadecin-6-yl)carbamate], the EC50 in experiment [1] (read-out: LE_1a (EC50)) is 410 pM; in experiment [1] (read-out: LE_1a (EC50, range)), 100 to 500 pM; in experiment [2] (read-out: LE_1b (EC50)), 280 pM; in experiment [2] (read-out: LE_1b (EC50, range)) it was 100 to 500 pM.

In the case of `CC[C@@H]1O[C@H](C)CC/C=C\[C@@H]2C[C@@]2(C(=O)NS(=O)(=O)C2(CF)CC2)NC(=O)[C@@H]2C[C@@H](Oc3nc(OC)cc4cc(OC)ccc34)CN2C(=O)[C@H]1NC(=O)OC(C)(C)C(F)(F)F` [Compound 1013, 1,1,1-trifluoro-2-methylpropan-2-yl ((2R,6S,7S,9R,13aS,14aR,16aS,Z)-2-((3,6-dimethoxyisoquinolin-1-yl)oxy)-7-ethyl-14a-(((1-(fluoromethyl)cyclopropyl)sulfonyl)carbamoyl)-9-methyl-5,16-dioxo-2,3,5,6,7,9,10,11,13a,14,14a,15,16,16a-tetradecahydro-1H-cyclopropa[i]pyrrolo[1,2-e][1,5,8]oxadiazacyclopentadecin-6-yl)carbamate], the EC50 was 1010 to 5000 pM in experiment [1] (read-out: LE_1a (EC50, range)) and 1010 to 5000 pM in experiment [2] (read-out: LE_1b (EC50, range)).

For `CC[C@@H]1O[C@H](C)CC/C=C\[C@@H]2C[C@@]2(C(=O)NS(=O)(=O)C2(C)CC2)NC(=O)[C@@H]2C[C@@H](Oc3cc(OC)nc4cc(OC)ccc34)CN2C(=O)[C@H]1NC(=O)OC(C)(C)C(C)(F)F` [Compound 1020, 3,3-difluoro-2-methylbutan-2-yl ((2R,6S,7S,9R,13aS,14aR,16aS,Z)-2-((2,7-dimethoxyquinolin-4-yl)oxy)-7-ethyl-9-methyl-14a-(((1-methylcyclopropyl)sulfonyl)carbamoyl)-5,16-dioxo-2,3,5,6,7,9,10,11,13a,14,14a,15,16,16a-tetradecahydro-1H-cyclopropa[i]pyrrolo[1,2-e][1,5,8]oxadiazacyclopentadecin-6-yl)carbamate], the EC50 in experiment [1] (read-out: LE_1a (EC50, range)) lay in the range of 1010 to 5000 pM; in experiment [2] (read-out: LE_1b (EC50, range)), 510 to 1000 pM.

Take `CC[C@@H]1O[C@H](C)CC/C=C\[C@@H]2C[C@@]2(C(=O)NS(=O)(=O)C2(C)CC2)NC(=O)[C@@H]2C[C@@H](Oc3nc4c(c5cc(OC)ccc35)CCCO4)CN2C(=O)[C@H]1NC(=O)OC(C)(C)C(F)(F)F` [Compound 2307, 1,1,1-trifluoro-2-methylpropan-2-yl ((2R,6S,7S,9R,13aS,14aR,16aS,Z)-7-ethyl-2-((9-methoxy-2,3-dihydro-1H-pyrano[2,3-c]isoquinolin-6-yl)oxy)-9-methyl-14a-(((1-methylcyclopropyl)sulfonyl)carbamoyl)-5,16-dioxo-2,3,5,6,7,9,10,11,13a,14,14a,15,16,16a-tetradecahydro-1H-cyclopropa[i]pyrrolo[1,2-e][1,5,8]oxadiazacyclopentadecin-6-yl)carbamate]: the EC50 in experiment [1] (read-out: LE_1a (EC50, range)) lay within 100 to 500 pM; in experiment [2] (read-out: LE_1b (EC50, range)), 100 to 500 pM.

For `CC[C@@H]1O[C@H](C)CC/C=C\[C@@H]2C[C@@]2(C(=O)NS(=O)(=O)C2(C)CC2)NC(=O)[C@@H]2C[C@@H](Oc3nc4c(c5cc(OC)ccc35)CCCO4)CN2C(=O)[C@H]1NC(=O)OC(C)(C)C(C)(F)F` [Compound 2308, 3,3-difluoro-2-methylbutan-2-yl ((2R,6S,7S,9R,13aS,14aR,16aS,Z)-7-ethyl-2-((9-methoxy-2,3-dihydro-1H-pyrano[2,3-c]isoquinolin-6-yl)oxy)-9-methyl-14a-(((1-methylcyclopropyl)sulfonyl)carbamoyl)-5,16-dioxo-2,3,5,6,7,9,10,11,13a,14,14a,15,16,16a-tetradecahydro-1H-cyclopropa[i]pyrrolo[1,2-e][1,5,8]oxadiazacyclopentadecin-6-yl)carbamate], the EC50 in experiment [1] (read-out: LE_1a (EC50, range)) fell in the range of 100 to 500 pM; in experiment [2] (read-out: LE_1b (EC50, range)), 100 to 500 pM.

As to `COc1cc2ccnc(O[C@@H]3C[C@H]4C(=O)N[C@]5(C(=O)NS(=O)(=O)C6(C)CC6)C[C@H]5/C=C\CC[C@@H](C)O[C@@H](C)[C@H](NC(=O)OC(C)(C)C(F)(F)F)C(=O)N4C3)c2cc1F` [Compound 2005, 1,1,1-trifluoro-2-methylpropan-2-yl ((2R,6S,7S,9R,13aS,14aR,16aS,Z)-2-((7-fluoro-6-methoxyisoquinolin-1-yl)oxy)-7,9-dimethyl-14a-(((1-methylcyclopropyl)sulfonyl)carbamoyl)-5,16-dioxo-2,3,5,6,7,9,10,11,13a,14,14a,15,16,16a-tetradecahydro-1H-cyclopropa[i]pyrrolo[1,2-e][1,5,8]oxadiazacyclopentadecin-6-yl)carbamate], the EC50 was 1010 to 5000 pM in experiment [1] (read-out: LE_1a (EC50, range)) and 100 to 500 pM in experiment [2] (read-out: LE_1b (EC50, range)).

As to `COc1cnc(O[C@@H]2C[C@H]3C(=O)N[C@]4(C(=O)NS(=O)(=O)C5(C)CC5)C[C@H]4/C=C\CO[C@@H](C)C[C@@H](C)[C@H](NC(=O)OC(C)(C)C)C(=O)N3C2)c2ccccc12` [Compound 2601, tert-butyl ((2R,6S,7R,9S,13aS,14aR,16aS,Z)-2-((4-methoxyisoquinolin-1-yl)oxy)-7,9-dimethyl-14a-(((1-methylcyclopropyl)sulfonyl)carbamoyl)-5,16-dioxo-2,3,5,6,7,8,9,11,13a,14,14a,15,16,16a-tetradecahydro-1H-cyclopropa[e]pyrrolo[2,1-i][1,7,10]oxadiazacyclopentadecin-6-yl)carbamate], the EC50 in experiment [1] (read-out: LE_1a (EC50, range)) lay within 1010 to 5000 pM; in experiment [2] (read-out: LE_1b (EC50, range)), 1010 to 5000 pM.
